In brackets after ≈: the same amount, converted by molar mass.

Series [1] concerns MDA-MB-231. Description: Antiproliferative activity against human MDA-MB-231 cells up to 72 hrs by MTT assay. It is filed as functional, cell-based. To be noted: MDA-MB-231, 72 h.
In series [2] the test system is MDA-MB-231. Put plainly: Potency index, ratio of curcumin IC50 to compound IC50 for human MDA-MB-231 cells. It is filed as functional.
The subject of a further series is HCT-116. Put plainly: Antiproliferative activity against human HCT116 cells up to 72 hrs by MTT assay. The format is functional, cell-based. The following applies: HCT-116, 72 h.
The next series has as its system PC-3. Description: Antiproliferative activity against human PC3 cells up to 72 hrs by MTT assay. The format is functional, cell-based. The following applies: PC-3, 72 h. Background: Formazan colour is commonly taken as a measure of viable cells.
The test system of series [3] is MDA-MB-231. Description: Anti-tumor activity against human MDA-MB-231 cells xenografted in nu/nu mouse assessed as reduction in tumor weight at 1 mg/kg, ip administered once daily for 32 days. The format is functional. Details: scale not given: the % may be the effect or the level left. (A xenograft is tissue or cells of one species grown in another, often human tumour cells in immunodeficient mice.)

For series [4], the system named is Mus musculus. Put plainly: Toxicity in nu/nu mouse assessed as behavioral changes at 1 mg/kg, ip administered once daily for 32 days. The following applies: in vivo, 768 h. The format is organism-based.
Series [5] concerns Mus musculus. Description: Toxicity in nu/nu mouse assessed as change in body weight at 1 mg/kg, ip administered once daily for 32 days. The format is organism-based. The following applies: in vivo, 768 h.
Series [6] concerns Mus musculus. Put plainly: Toxicity in nu/nu mouse assessed as hematological changes at 1 mg/kg, ip administered once daily for 32 days. It is filed as organism-based. The following applies: in vivo, 768 h.
Another series relates to T47D. Description: Antiproliferative activity against ER/PR positive human T47D cells after 24 hrs by MTT assay. The format is functional, cell-based.
A further series concerns MCF7. Description: Antiproliferative activity against ER/PR positive human MCF7 cells after 24 hrs by MTT assay. It is filed as functional, cell-based. The following applies: MCF7, 24 h.
The test system of a further series is MDA-MB-453. Description: Antiproliferative activity against HER2 positive human MDA-MB-453 cells after 24 hrs by MTT assay. It is filed as functional, cell-based. To be noted: MDA-MB-453, 24 h.
A further series deals with MDA-MB-157. Description: Antiproliferative activity against human MDA-MB-157 cells after 24 hrs by MTT assay. It is filed as functional, cell-based. The following applies: MDA-MB-157, 24 h.
The subject of the next series is BT-474. Put plainly: Antiproliferative activity against HER2 positive human BT474 cells after 24 hrs by MTT assay. The format is functional, cell-based. To be noted: BT-474, 24 h.
The test system of a further series is SK-BR-3. Description: Antiproliferative activity against HER2 positive human SKBR3 cells after 24 hrs by MTT assay. The following applies: SK-BR-3, 24 h. It is filed as functional, cell-based.
The subject of series [7] is MDA-MB-468. Description: Antiproliferative activity against human MDA-MB-468 cells after 24 hrs by MTT assay. To be noted: MDA-MB-468, 24 h. The format is functional, cell-based.
The subject of a further series is Hs-578T. Put plainly: Antiproliferative activity against human Hs578T cells after 24 hrs by MTT assay. It is filed as functional, cell-based.
In series [8] the test system is MDA-MB-468. Put plainly: Antiproliferative activity against doxorubicin-resistant human MDA-MB-468 cells after 24 hrs by MTT assay. It is filed as functional, cell-based. To be noted: MDA-MB-468, 24 h.
In series [9] the test system is Mus musculus. Description: Toxicity in nu/nu mouse assessed as changes in body weight at 100 mg/kg, po administered once daily for 32 days measured every 4 days during compound dosing. It is filed as organism-based. The following applies: in vivo.
Series [10] has as its system Mus musculus. Description: Toxicity in nu/nu mouse assessed as effect on food consumption at 100 mg/kg, po administered once daily for 32 days measured during compound dosing. The format is organism-based. The following applies: in vivo, 768 h.
In series [11] the test system is Mus musculus. Description: Toxicity in nu/nu mouse assessed as behavioral changes at 100 mg/kg, po administered once daily for 32 days measured during compound dosing. The format is organism-based. To be noted: in vivo, 768 h.
The nature of series [12]: Solubility of the compound in water after 24 hrs by shake-flask method. It is filed as physicochemical.
A short description of series [13]: Solubility of the compound in ethanol after 24 hrs by shake-flask method. It is filed as physicochemical. The following applies: 24 h.
The subject of series [14] is MDA-MB-468. Description: Potency index, ratio of curcumin IC50 to compound IC50 for doxorubicin-resistant human MDA-MB-468 cells. It is filed as functional.
For series [15], the system named is Mus musculus. Description: Acute-toxicity in nu/nu mouse assessed as changes in body weight at 500 mg/kg, po administered once daily for 5 days measured for 21 days. It is filed as organism-based. The following applies: in vivo, 504 h.
In series [16] the test system is Mus musculus. Put plainly: Acute-toxicity in nu/nu mouse assessed as behavioral changes at 500 mg/kg, po administered once daily for 5 days measured for 21 days. It is filed as organism-based. The following applies: in vivo, 504 h.

Consider `COc1cc(/C=C/C(O)=C/C(=O)/C=C/c2ccc(OC(=O)C(C)(CO)CO)c(OC)c2)ccc1O`, for which the IC50 (commonly the concentration needed to halve the response being measured) is 5.94 µM in the series on MDA-MB-231 [1], 15.5 µM in the series on HCT-116 and 17.4 µM with PC-3. For the same compound, in the series with MDA-MB-231 [2], the “Ratio IC50” value is listed as 2.4 - 12.2.
For `CCC(CO)(CO)C(=O)Oc1ccc(/C=C/C(=O)/C=C(O)/C=C/c2ccc(OC(=O)C(CC)(CO)CO)c(OC)c2)cc1OC`, the IC50 is 2 µM with MDA-MB-231 [1], 1.34 µM in the series on HCT-116 and 4.21 µM in the series on PC-3. In addition, in the series with MDA-MB-231 [2], the “Ratio IC50” value was 2.4 - 12.2.
The like results for `COc1ccc(/C=C/C(O)=C/C(=O)/C=C/c2ccc(OC)c(OC(=O)C(C)(CO)CO)c2)cc1O` were, in that order, 2.29 µM, 1.95 µM, 2.32 µM and 2.4 - 12.2.
On to `COc1cccc2c1C(=O)c1c(O)c3c(c(O)c1C2=O)C[C@@](O)(C(=O)CO)C[C@@H]3O[C@H]1C[C@H](N)[C@H](O)[C@H](C)O1` [DOXORUBICIN], for which the Activity in the series with MDA-MB-231 [3] was 60%; in the series on Mus musculus [4], “Non-Toxic”; with Mus musculus [5] it was “Non-Toxic”; in the series on Mus musculus [6], “Non-Toxic”.
Regarding `COc1ccc(/C=C/C(=O)/C=C(O)/C=C/c2ccc(OC)c(OC(=O)C(C)(CO)CO)c2)cc1OC(=O)C(C)(CO)CO`, the IC50 in the series with MDA-MB-231 [1] came to 4.61 µM; in the series with HCT-116 it was 2.79 µM; with PC-3, 4.74 µM. Moreover, in the series on MDA-MB-231 [2], the “Ratio IC50” value is given as 3.5.
As to `COc1cc(/C=C/C(=O)CC(=O)/C=C/c2ccc(O)c(OC)c2)ccc1O` [CURCUMIN], the IC50 in the series with MDA-MB-231 [1] was determined as 16.2 µM; in the series with HCT-116, 13.8 µM; with PC-3, 18.8 µM; in the series on T47D, 47.9 µM; in the series on MCF7, 42.9 µM; with MDA-MB-453, 32.4 µM. Moreover, the concentration for half-maximal inhibition (IC50) in the series on MDA-MB-157 came out at 40.4 µM; in the series on BT-474, 30.1 µM; in the series on SK-BR-3 it was 42.8 µM; in the series on MDA-MB-468 [7] it was 42.9 µM; with Hs-578T, 55.5 µM; in the series with MDA-MB-468 [8], 58.6 µM. Further, the Activity result in the series with Mus musculus [9], with Mus musculus [10] and in the series on Mus musculus [11] was “Non-Toxic” in each case. The thermodynamic solubility – broadly, solubility found after equilibrating the solid with the medium – at 24 h in series [12] was found to be 0.6 µg/mL (≈ 1.63 µM). In series [13], the solubility (usually the dissolved amount per volume that the medium holds) was found to be 1860 µg/mL (≈ 5050 µM).
As for `CC(CO)(CO)C(=O)Oc1ccc(/C=C/C(=O)/C=C(O)/C=C/c2ccc(O)cc2)cc1`, the IC50 in the series with MDA-MB-231 [1] was found to be 1.33 µM; in the series with PC-3, 5.22 µM. The “Ratio IC50” value with MDA-MB-231 [2] was determined as 12.
Take `CCC(CO)(CO)C(=O)Oc1cc(/C=C/C(=O)/C=C(O)/C=C/c2ccc(OC)c(O)c2)ccc1OC`: the values for the half-maximal inhibitory concentration (IC50) in the series on MDA-MB-231 [1], in the series with HCT-116 and in the series on PC-3 were 3.85 µM, 3.64 µM and 7.03 µM, respectively. Further, in the series on MDA-MB-231 [2], the “Ratio IC50” value is on record as 2.4 - 12.2.
The like results for `CC(CO)(CO)C(=O)Oc1ccc(/C=C/C(=O)C(C)(C)C(=O)/C=C/c2ccc(OC(=O)C(C)(CO)CO)cc2)cc1` were, in that order, 2.98 µM, 2.63 µM, 3.62 µM and 2.4 - 12.2.
Take `COc1ccc(/C=C/C(O)=C/C(=O)/C=C/c2ccc(OC(=O)C(C)(CO)CO)c(OC)c2)cc1OC`: the concentration for half-maximal inhibition (IC50) with MDA-MB-231 [1] worked out at 2.55 µM; in the series on HCT-116, 4.77 µM; in the series on PC-3, 7.64 µM. In the series on MDA-MB-231 [2], the “Ratio IC50” value is 2.4 - 12.2.
With `COc1cc(/C=C/C(=O)C(C)(C)C(=O)/C=C/c2ccc(OC(=O)C(C)(CO)CO)c(OC)c2)ccc1OC(=O)C(C)(CO)CO`, the IC50 turned out to be 1.98 µM with MDA-MB-231 [1], 1.65 µM with HCT-116, 1.76 µM in the series on PC-3 and 5.71 µM with MDA-MB-468 [8]. Also, the “Ratio IC50” value in the series with MDA-MB-231 [2] is on record as 2.4 - 12.2; with MDA-MB-468 [14] it was 10. The Activity result in the series with Mus musculus [15] and in the series on Mus musculus [16] was “Non-Toxic” in each case.
Regarding `CCC(CC)(C(=O)/C=C/c1ccc(OC(=O)C(C)(CO)CO)c(OC)c1)C(=O)/C=C/c1ccc(OC(=O)C(C)(CO)CO)c(OC)c1`, the IC50 in the series on MDA-MB-231 [1] was determined as 1.78 µM; in the series with HCT-116 it was 1.74 µM; in the series on PC-3, 2.16 µM. For the same compound, the “Ratio IC50” value in the series on MDA-MB-231 [2] was 2.4 - 12.2.
With `COc1ccc(/C=C/C(=O)C(C)(C)C(=O)/C=C/c2ccc(OC)c(OC(=O)C(C)(CO)CO)c2)cc1OC(=O)C(C)(CO)CO`, in the series with MDA-MB-231 [1], half-maximal inhibition (IC50) required 2.7 µM. For the same compound, the “Ratio IC50” value in the series with MDA-MB-231 [2] is listed as 2.4 - 12.2.
For `COc1cc(/C=C/C(=O)C(Cc2ccccc2)(Cc2ccccc2)C(=O)/C=C/c2ccc(OC(=O)C(C)(CO)CO)c(OC)c2)ccc1OC(=O)C(C)(CO)CO`, the IC50 turned out to be 2.11 µM in the series on MDA-MB-231 [1], 3.88 µM in the series on HCT-116 and 7.28 µM with PC-3. Also, the “Ratio IC50” value in the series on MDA-MB-231 [2] is recorded as 2.4 - 12.2.
With `CC(CO)(CO)C(=O)Oc1ccc(/C=C/C(=O)/C=C(O)/C=C/c2ccc(OC(=O)C(C)(CO)CO)cc2)cc1`, the IC50 stood at 6.74 µM with MDA-MB-231 [1], 4.1 µM in the series on HCT-116 and 5.59 µM in the series on PC-3. In the series on MDA-MB-231 [2], the “Ratio IC50” value is 2.4 - 12.2.
The like results for `CCC(CO)(CO)C(=O)Oc1ccc(/C=C/C(=O)/C=C(O)/C=C/c2ccc(O)c(OC)c2)cc1OC` were, in that order, 4.66 µM, 11.4 µM, 12.5 µM and 2.4 - 12.2.

Values taken from ChEMBL document CHEMBL4038282 (Eur J Med Chem, 2017).
